SMILES strings stand for the structures.

The subject of assay [1] is OCI-AML3 cells. The experiment in a line: OCI-AML3 cell growth inhibition, dose-response viability assay (CellTiterGlo). Type of assay: cell-based. As to conditions: Homo sapiens, OCI-AML-3, 144 h, read-out: AML-3 EC50. How it is done:
Cell dose-response viability assays. […] In the initial screen, compounds were added to seeded cells in serial dilutions (10 dilutions, 1:3, starting from […] 20 μM), in duplicates.
(§1) The potency of the compounds of Example 6 at inhibiting OCI-AML3 cell growth was tested using a procedure similar to that described for Mutritinib in Example 1. […] Murine MLL-AF9 leukemia cells (female cells) were generated by infection with VSV-G-pseudotyped MSCV MLL-AF9 IRES Puro (subcloned from a construct by Frédéric Barabé, Laval U, Quebec, QC, Canada).
(§2) Compounds were added to seeded cells in serial dilutions from 10 μM to 0.5 nM, in duplicates or quadruplicates.
For orientation: Cellular ATP, detected with luciferase, serves as a proxy for viable cell number.

The test system of assay [2] is MLL-AF9 cells. As to the kind of experiment: MLL-AF9 leukemia cell growth inhibition, dose-response viability assay (CellTiterGlo). In kind it is cell-based, murine. As to conditions: Mus musculus, MLL-AF9, 120 h, read-out: MLL-AF9 EC50. On the procedure: as §1, §2

As to `FC(F)(F)c1ccc(/C=C/c2nc(COc3ccc(CCCn4ccnn4)cc3)co2)cc1` [Compound 50, (E)-4-((4-(3-(1H-1,2,3-triazol-1-yl)propyl)phenoxy)methyl)-2-(4-(trifluoromethyl)styryl)oxazole], the results for the concentration for a half-maximal effect (EC50) in assay [1] and in assay [2] were 1 to 10 µM and 0.1 to 0.5 µM, respectively.
In the case of `OCCc1nccn1CCCCc1ccc(OCc2coc(/C=C/c3ccc(C(F)(F)F)cc3)n2)cc1` [Compound 51, (E)-2-(1-(4-(4-((2-(4-(trifluoromethyl)styryl)oxazol-4-yl)methoxy)phenyl)butyl)-1H-imidazol-2-yl)ethanol], the EC50 – broadly, the concentration giving half of the maximal effect – in assay [1] is 1 to 10 µM; in assay [2], 0.5 to 1 µM.
The matching figures for `NCCc1nccn1CCCCc1ccc(OCc2coc(/C=C/c3ccc(C(F)(F)F)cc3)n2)cc1` [Compound 52, (E)-2-(1-(4-(4-((2-(4-(trifluoromethyl)styryl)oxazol-4-yl)methoxy)phenyl)butyl)-1H-imidazol-2-yl)ethanamine]: 1 to 10 µM and 1 to 10 µM.
The matching figures for `CN(C)C(=O)OCCc1nccn1CCCCc1ccc(OCc2coc(/C=C/c3ccc(C(F)(F)F)cc3)n2)cc1` [Compound 53, (E)-2-(1-(4-(4-((2-(4-(trifluoromethyl)styryl)oxazol-4-yl)methoxy)phenyl)butyl)-1H-imidazol-2-yl)ethyl dimethylcarbamate]: 0.1 to 0.5 µM and 0.05 to 0.1 µM.
In the case of `CS(=O)(=O)NCCc1nccn1CCCCc1ccc(OCc2coc(/C=C/c3ccc(C(F)(F)F)cc3)n2)cc1` [Compound 54, (E)-N-(2-(1-(4-(4-((2-(4-(trifluoromethyl)styryl)oxazol-4-yl)methoxy)phenyl)butyl)-1H-imidazol-2-yl)ethyl)methanesulfonamide], the EC50 in assay [1] and in assay [2] was 0.1 to 0.5 µM each time.
On to `O=S(=O)(NCCc1nccn1CCCCc1ccc(OCc2coc(/C=C/c3ccc(C(F)(F)F)cc3)n2)cc1)C(F)(F)F` [Compound 55, (E)-1,1,1-trifluoro-N-(2-(1-(4-(4-((2-(4-(trifluoromethyl)styryl)oxazol-4-yl)methoxy)phenyl)butyl)-1H-imidazol-2-yl)ethyl)methanesulfonamide], for which the EC50 fell in the range of 0.5 to 1 µM in assay [1] and 0.1 to 0.5 µM in assay [2].
The matching figures for `FC(F)(F)c1ccc(/C=C/c2cccc(COc3ccc(CCCCn4ccnn4)cc3)c2)cc1` [Compound 56, (E)-1-(4-(4-((3-(4-(trifluoromethyl)styryl)benzyl)oxy)phenyl)butyl)-1H-1,2,3-triazole]: 1 to 10 µM and 1 to 10 µM.
As to `FC(F)(F)c1ccc(/C=C/c2ccc(COc3ccc(CCCCn4ccnn4)cc3)cc2)cc1` [Compound 57, (E)-1-(4-(4-((4-(4-(trifluoromethyl)styryl)benzyl)oxy)phenyl)butyl)-1H-1,2,3-triazole], the figures for the concentration for a half-maximal effect (EC50) in assay [1] and in assay [2] were 1 to 10 µM and 0.5 to 1 µM, respectively.
As for `COC(=O)c1ccc(/C=C/c2nc(COc3ccc(CCCCn4ccnn4)cc3)co2)cc1` [Compound 58, (E)-methyl 4-(2-(4-((4-(4-(1H-1,2,3-triazol-1-yl)butyl)phenoxy)methyl)oxazol-2-yl)vinyl)benzoate], the EC50 lay within 0.5 to 1 µM in assay [1] and 1 to 10 µM in assay [2].
As to `C#CCNC(=O)c1ccc(/C=C/c2nc(COc3ccc(CCCCn4ccnn4)cc3)co2)cc1` [Compound 59, (E)-4-(2-(4-((4-(4-(1H-1,2,3-triazol-1-yl)butyl)phenoxy)methyl)oxazol-2-yl)vinyl)-N-(prop-2-yn-1-yl)benzamide], the EC50 was 0.5 to 1 µM in assay [1] and 0.1 to 0.5 µM in assay [2].
In the same order, the values of `OCc1ccc(/C=C/c2nc(COc3ccc(CCCCn4ccnn4)cc3)co2)cc1` [Compound 60, (E)-(4-(2-(4-((4-(4-(1H-1,2,3-triazol-1-yl)butyl)phenoxy)methyl)oxazol-2-yl)vinyl)phenyl)methanol] are 1 to 10 µM and 1 to 10 µM.
In the same order, the values of `COc1ccc(/C=C/c2nc(COc3ccc(CCCCn4ccnn4)cc3)co2)c(F)c1` [Compound 61, (E)-4-((4-(4-(1H-1,2,3-triazol-1-yl)butyl)phenoxy)methyl)-2-(2-fluoro-4-methoxystyryl)oxazole] are 0.1 to 0.5 µM and 0.1 to 0.5 µM.
For `Oc1ccc(/C=C/c2nc(COc3ccc(CCCCn4ccnn4)cc3)co2)cc1` [Compound 62, (E)-4-(2-(4-((4-(4-(1H-1,2,3-triazol-1-yl)butyl)phenoxy)methyl)oxazol-2-yl)vinyl)phenol], the 50% effective concentration (EC50) in assay [1] and in assay [2] was 0.1 to 0.5 µM each time.
As to `NC(=O)c1ccc(/C=C/c2nc(COc3ccc(CCCCn4ccnn4)cc3)co2)cc1` [Compound 63, (E)-4-(2-(4-((4-(4-(1H-1,2,3-triazol-1-yl)butyl)phenoxy)methyl)oxazol-2-yl)vinyl)benzamide], the 50% effective concentration (EC50) in assay [1] lay within 0.5 to 1 µM; in assay [2], 1 to 10 µM.
In the same order, the values of `C#Cc1ccc(/C=C/c2nc(COc3ccc(CCCCn4ccnn4)cc3)co2)cc1` [Compound 64, (E)-4-((4-(4-(1H-1,2,3-triazol-1-yl)butyl)phenoxy)methyl)-2-(4-ethynylstyryl)oxazole] are 1 to 10 µM and 0.5 to 1 µM.
The matching figures for `O=[N+]([O-])c1ccc(/C=C/c2nc(COc3ccc(CCCCn4ccnn4)cc3)co2)c(F)c1` [Compound 65, (E)-4-((4-(4-(1H-1,2,3-triazol-1-yl)butyl)phenoxy)methyl)-2-(2-fluoro-4-nitrostyryl)oxazole]: 0.05 to 0.1 µM and < 0.05 µM.
Take `Nc1ccc(/C=C/c2nc(COc3ccc(CCCCn4ccnn4)cc3)co2)c(F)c1` [Compound 66, (E)-4-(2-(4-((4-(4-(1H-1,2,3-triazol-1-yl)butyl)phenoxy)methyl)oxazol-2-yl)vinyl)-3-fluoroaniline]: the 50% effective concentration (EC50) in assay [1] and in assay [2] was 1 to 10 µM each time.
As for `[N-]=[N+]=Nc1ccc(/C=C/c2nc(COc3ccc(CCCCn4ccnn4)cc3)co2)c(F)c1` [Compound 67, (E)-4-((4-(4-(1H-1,2,3-triazol-1-yl)butyl)phenoxy)methyl)-2-(4-azido-2-fluorostyryl)oxazole], the EC50 in assay [1] and in assay [2] was 0.1 to 0.5 µM each time.
Turning to `CN(C)C(=O)OCCc1cn(CCCCc2ccc(OCc3coc(/C=C/c4ccc(C(F)(F)F)cc4)n3)cc2)nn1` [Compound 68, (E)-2-(1-(4-(4-((2-(4-(trifluoromethyl)styryl)oxazol-4-yl)methoxy)phenyl)butyl)-1H-1,2,3-triazol-4-yl)ethyl dimethylcarbamate], the concentration giving a half-maximal response (EC50) in assay [1] fell in the range of 0.5 to 1 µM; in assay [2], 0.1 to 0.5 µM.
Turning to `COCCNC(=O)OCCc1cn(CCCCc2ccc(OCc3coc(/C=C/c4ccc(C(F)(F)F)cc4)n3)cc2)nn1` [Compound 69, (E)-2-(1-(4-(4-((2-(4-(trifluoromethyl)styryl)oxazol-4-yl)methoxy)phenyl)butyl)-1H-1,2,3-triazol-4-yl)ethyl (2-methoxyethyl)carbamate], the EC50 in assay [1] lay within 0.5 to 1 µM; in assay [2], 0.1 to 0.5 µM.
Consider `CC(C)NC(=O)OCCc1cn(CCCCc2ccc(OCc3coc(/C=C/c4ccc(C(F)(F)F)cc4)n3)cc2)nn1` [Compound 70, (E)-2-(1-(4-(4-((2-(4-(trifluoromethyl)styryl)oxazol-4-yl)methoxy)phenyl)butyl)-1H-1,2,3-triazol-4-yl)ethyl isopropylcarbamate], for which the EC50 in assay [1] lay in the range of 0.5 to 1 µM; in assay [2], 0.1 to 0.5 µM.
On to `O=S1(=O)CCN(Cc2cn(CCCCc3ccc(OCc4coc(/C=C/c5ccc(C(F)(F)F)cc5F)n4)cc3)nn2)CC1` [Compound 71, (E)-4-((1-(4-(4-((2-(2-fluoro-4-(trifluoromethyl)styryl)oxazol-4-yl)methoxy)phenyl)butyl)-1H-1,2,3-triazol-4-yl)methyl)thiomorpholine 1,1-dioxide], for which the figures for the EC50 in assay [1] and in assay [2] were 0.1 to 0.5 µM and < 0.05 µM, respectively.
As to `CN(C)c1cccc2c(S(=O)(=O)NCCNC(=O)c3ccc(/C=C/c4nc(COc5ccc(CCCCn6ccnn6)cc5)co4)cc3)cccc12` [Compound 72, (E)-4-(2-(4-((4-(4-(1H-1,2,3-triazol-1-yl)butyl)phenoxy)methyl)oxazol-2-yl)vinyl)-N-(2-(5-(dimethylamino)naphthalene-1-sulfonamido)ethyl)benzamide], the concentration for a half-maximal effect (EC50) was in the range of 1 to 10 µM in assay [1] and 0.5 to 1 µM in assay [2].
Regarding `Fc1ccc2[nH]c(-c3nc(COc4ccc(CCCCn5ccnn5)cc4)co3)cc2c1` [Compound 73], the EC50 in assay [1] was 0.1 to 0.5 µM; in assay [2], < 0.05 µM.
In the same order, the values of `C/C(=C\c1nc(COc2ccc(CCCCn3ccnn3)cc2)co1)c1ccc(C(F)(F)F)cc1` [Compound 74, (E)-4-((4-(4-(1H-1,2,3-triazol-1-yl)butyl)phenoxy)methyl)-2-(2-(4-(trifluoromethyl)phenyl)prop-1-en-1-yl)oxazole] are 1 to 10 µM and 0.1 to 0.5 µM.
In the same order, the values of `FC(F)(F)c1ccc(-c2ccc(COc3ccc(CCCCn4ccnn4)cc3)cn2)cc1` [Compound 75] are 1 to 10 µM and 1 to 10 µM.
In the same order, the values of `FC(F)(F)c1ccc(C2CC2c2nc(COc3ccc(CCCCn4ccnn4)cc3)co2)cc1` (centres unmarked) [Compound 76, 4-((4-(4-(1H-1,2,3-triazol-1-yl)butyl)phenoxy)methyl)-2-(2-(4-(trifluoromethyl)phenyl)cyclopropyl)oxazole] are 1 to 10 µM and 1 to 10 µM.
In the case of `COC(=O)c1coc(COc2ccc(CCCCn3ccnn3)cc2)n1` [Compound 77, Methyl 2-((4-(4-(1H-1,2,3-triazol-1-yl)butyl)phenoxy)methyl)oxazole-4-carboxylate], the results for the 50% effective concentration (EC50) in assay [1] and in assay [2] were 1 to 10 µM and > 10 µM, respectively.
